Tested on: transgenic (mRen-2)27 rats
Assay: Streptozotocin-diabetic Ren-2 rat model of diabetic complications
Type: in vivo
Conditions: administered i.v. at a dose of from 0.1 to 10 mg/kg
Experimental: Ren-2 rats (e.g. as disclosed in D. J. Kelly et al, Kidney Int, Vol 54, 1998, p343-352)
The effect of Compound A, B or C, on diabetic complications is tested in transgenic (mRen-2)27 rats (also called “Ren-2 rats”), model that develops hypertension and many of the structural and functional characteristics of human diabetic nephropathy when diabetes is induced by streptozotocin, resulting in a progressive disease with many of the structural, functional and molecular characteristics of human diabetic nephropathy. The progression of this disease is associated with an increase in renal and cardiac growth factors and extra cellular matrix accumulation.
The effect of the compounds of the invention on diabetic nephropathy may be studied with the Ren-2 rats model, as disclosed in D. J. Kelly et al, Diabetes, Vol 52, February 2003, p512-518: Diabetes is induced by injection of streptozotocin, 55 mg/kg. All diabetic rats receive insulin (human isophane) 2 units/day to promote body weight and reduce mortality. The experimental period continues for 16 weeks in Ren-2 rats to study advanced renal and cardiac disease. Rats are randomised to the following groups:
Group 1: non-diabetic Ren-2, no drug Group 2: non-diabetic Ren2, Compound C Group 3: non-diabetic Ren-2, Compound A Group 4: diabetic Ren-2 Group 5: diabetic Ren-2, drug Compound C, dose 1 Group 6: diabetic Ren-2, drug Compound A, dose 1 Group 7: diabetic Ren-2, drug Compound C, dose 2 Group 8: diabetic Ren-2, drug Compound A, dose 2 N=20 per group (160 rats) […]
The spatial distribution and quantitation of the immunohistochemistry by image analysis provide specific information regarding the cell type and location of disease progression. […]
The right kidney is snap frozen in liquid nitrogen and used for molecular biological experiments. Tissue and cell specific changes in expression may be quantifyed using immunohistochemistry with quantitative image analysis and real time PCR (ABI Prism 7700, Perkin Elmer Biosystems, Foster City, Calif.) with TaqMan, Such a PCR analysis is a technique well known by the one skilled in the art.

| SMILES | effect on the diabetic complications |
| --- | --- |
| CN1CCN(c2nc(C3=C(c4c[nH]c5ccccc45)C(=O)NC3=O)c3ccccc3n2)CC1 [Compound A, 3-(1.H.-indol-3-yl)-4-[2-(4-methyl-piperazin-1-yl)-quinazolin-4-yl]-pyrrole-2,5-dione] | beneficial effect |
| O=C1NC(=O)C(c2c[nH]c3ccccc23)=C1c1nc(N2CCNCC2)nc2ccccc12 [Compound B, 3-(1.H.-indol-3-yl)-4-[2-(piperazin-1-yl)-quinazolin-4-yl]-pyrrole-2,5-dione] | beneficial effect |
| Cc1cccc2c(C3=C(c4nc(N5CCNC6(CC6)C5)cc5ccccc45)C(=O)NC3=O)c[nH]c12 [Compound C, 3-[3-(4,7-Diaza-spiro[2,5]oct-7-yl)-isoquinolin-1-yl]-4-(7-methyl-1H-indol-3-yl)-pyrrole-2,5-dione] | beneficial effect |

From patent US20110251203A1, “USE OF PKC INHIBITORS IN DIABETIC COMPLICATIONS” (priority 2006, published 2011)
